From patent US8802597B2, “Herbicidal pyrimidines” (E I du Pont de Nemours and Company, priority 2003, dated 2014) come the findings set out here.

Test in all cases: Test A pre/postemergence
Type in all cases: in vivo

The subject of experiment [1] is barnyardgrass (Echinochloa crus-galli). In short, it runs like this: (§1)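 Visual injury scored 0–100 (0 = no effect, 100 = complete control) against untreated controls after about ten days in the greenhouse. Compounds, formulated in non-phytotoxic solvent plus surfactant, were applied preemergence as a directed soil spray and postemergence at the 1- to 2-leaf stage (2–10 cm).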

The test system of experiment [2] is crabgrass (Digitaria sanguinalis). The procedure, abridged: as §1
For experiment [3], the system named is velvetleaf (Abutilon theophrasti). In short, it runs like this: as §1
The subject of experiment [4] is redroot pigweed (Amaranthus retroflexus). In short, it runs like this:
as §1

Experiment [5] concerns giant foxtail (Setaria faberi). In short, it runs like this: as §1
The test system of experiment [6] is morningglory (Ipomoea spp.). In short, it runs like this:
as §1

The mark [7] stands for this setting: Postemergence, 125 g ai/ha, 0 to 100 scale (0 no effect, 100 complete control).
[8] abbreviates: Postemergence, 500 g ai/ha, 0 to 100 scale (0 no effect, 100 complete control).
Setting [9] is: Preemergence, 125 g ai/ha, 0 to 100 scale where 0 is no effect and 100 is complete control, approximately ten days.
The mark [10] stands for this setting: Preemergence, 500 g ai/ha, 0 to 100 scale where 0 is no effect and 100 is complete control, approximately ten days.
Where [11] appears, read: Postemergence, 2000 g ai/ha, 0 to 100 scale (0 no effect, 100 complete control).
The mark [12] stands for this setting: Preemergence, 2000 g ai/ha, 0 to 100 scale (0 no effect, 100 complete control).

For `COC(=O)c1nc(-c2ccc(SC)cc2)nc(N)c1Cl` [Compound 121], the “Plant response rating, Barnyardgrass” value in experiment [1] (setting [7]) was determined as 0; in experiment [1] (setting [8]) it was 5; in experiment [1] (setting [9]) it was 0; in experiment [1] (setting [10]) it was 0. Besides, the “Plant response rating, Crabgrass” value in experiment [2] (setting [7]), in experiment [2] (setting [8]), in experiment [2] (setting [9]) and in experiment [2] (setting [10]) was 0 in each case. Further, the “Plant response rating, Velvetleaf” value in experiment [3] (setting [7]), in experiment [3] (setting [8]), in experiment [3] (setting [9]) and in experiment [3] (setting [10]) was 0 in each case. Also, the “Plant response rating, Pigweed” value in experiment [4] (setting [7]), in experiment [4] (setting [8]), in experiment [4] (setting [9]) and in experiment [4] (setting [10]) was 0 throughout. Further, the “Plant response rating, Foxtail, Giant” value in experiment [5] (setting [7]), in experiment [5] (setting [8]), in experiment [5] (setting [9]) and in experiment [5] (setting [10]) was 0 each time. Also, the “Plant response rating, Morningglory” value in experiment [6] (setting [7]) was determined as 0; in experiment [6] (setting [8]), 10; in experiment [6] (setting [9]), 0; in experiment [6] (setting [10]), 0.
For `CCOC(=O)c1nc(-c2cccc(C(F)(F)F)c2)nc(N)c1Cl` [Compound 107], the “Plant response rating, Barnyardgrass” value in experiment [1] (setting [7]), in experiment [1] (setting [8]), in experiment [1] (setting [9]) and in experiment [1] (setting [10]) was 0 each time. The “Plant response rating, Crabgrass” value in experiment [2] (setting [7]) turned out to be 0; in experiment [2] (setting [8]) it was 5; in experiment [2] (setting [9]), 0; in experiment [2] (setting [10]), 5. Besides, the “Plant response rating, Velvetleaf” value was found to be 35 in experiment [3] (setting [7]), 65 in experiment [3] (setting [8]), 0 in experiment [3] (setting [9]) and 10 in experiment [3] (setting [10]). Moreover, the “Plant response rating, Pigweed” value is listed as 10 in experiment [4] (setting [7]), 10 in experiment [4] (setting [8]), 0 in experiment [4] (setting [9]) and 0 in experiment [4] (setting [10]). The “Plant response rating, Foxtail, Giant” value in experiment [5] (setting [7]) is 0; in experiment [5] (setting [8]), 35; in experiment [5] (setting [9]), 0; in experiment [5] (setting [10]), 0. Moreover, the “Plant response rating, Morningglory” value in experiment [6] (setting [7]), in experiment [6] (setting [8]), in experiment [6] (setting [9]) and in experiment [6] (setting [10]) was 0 throughout.
As to `Nc1nc(C2CC2)nc(C(=O)OCC2CO2)c1Cl` (stereo not drawn) [Compound 140], the “Plant response rating, Barnyardgrass” value came to 70 in experiment [1] (setting [7]), 90 in experiment [1] (setting [8]), 70 in experiment [1] (setting [9]) and 90 in experiment [1] (setting [10]). For the same compound, the “Plant response rating, Crabgrass” value in experiment [2] (setting [7]) is 65; in experiment [2] (setting [8]), 80; in experiment [2] (setting [9]) it was 70; in experiment [2] (setting [10]) it was 90. Besides, the “Plant response rating, Velvetleaf” value in experiment [3] (setting [7]) was determined as 90; in experiment [3] (setting [8]), 90; in experiment [3] (setting [9]), 90; in experiment [3] (setting [10]), 95. For the same compound, the “Plant response rating, Pigweed” value in experiment [4] (setting [7]) was 90; in experiment [4] (setting [8]) it was 100; in experiment [4] (setting [9]) it was 90; in experiment [4] (setting [10]), 95. Besides, the “Plant response rating, Foxtail, Giant” value in experiment [5] (setting [7]) is 85; in experiment [5] (setting [8]) it was 90; in experiment [5] (setting [9]) it was 40; in experiment [5] (setting [10]), 85. Also, the “Plant response rating, Morningglory” value in experiment [6] (setting [7]) is 85; in experiment [6] (setting [8]) it was 90; in experiment [6] (setting [9]) it was 90; in experiment [6] (setting [10]), 95.
`CC(C)N.Nc1nc(C2CC2)nc(C(=O)O)c1Cl` [Compound 144]: the “Plant response rating, Barnyardgrass” value in experiment [1] (setting [7]) is 60; in experiment [1] (setting [8]), 90; in experiment [1] (setting [9]), 65; in experiment [1] (setting [10]), 80. Besides, the “Plant response rating, Crabgrass” value in experiment [2] (setting [7]) was determined as 40; in experiment [2] (setting [8]), 80; in experiment [2] (setting [9]) it was 75; in experiment [2] (setting [10]) it was 95. Besides, the “Plant response rating, Velvetleaf” value in experiment [3] (setting [7]) stood at 95; in experiment [3] (setting [8]) it was 100; in experiment [3] (setting [9]), 75; in experiment [3] (setting [10]) it was 85. The “Plant response rating, Pigweed” value in experiment [4] (setting [7]) was 85; in experiment [4] (setting [8]), 100; in experiment [4] (setting [9]) it was 75; in experiment [4] (setting [10]), 85. For the same compound, the “Plant response rating, Foxtail, Giant” value came out at 70 in experiment [5] (setting [7]), 80 in experiment [5] (setting [8]), 35 in experiment [5] (setting [9]) and 80 in experiment [5] (setting [10]). Besides, the “Plant response rating, Morningglory” value in experiment [6] (setting [7]) was 85; in experiment [6] (setting [8]), 95; in experiment [6] (setting [9]), 85; in experiment [6] (setting [10]), 95.
For the compound `Nc1nc(-c2ccc(F)cc2)nc(C(=O)O)c1Br` [Compound 93], the “Plant response rating, Barnyardgrass” value in experiment [1] (setting [7]) is on record as 0; in experiment [1] (setting [8]), 0; in experiment [1] (setting [9]), 5; in experiment [1] (setting [10]), 30. For the same compound, the “Plant response rating, Crabgrass” value in experiment [2] (setting [7]) is given as 0; in experiment [2] (setting [8]), 0; in experiment [2] (setting [9]), 25; in experiment [2] (setting [10]), 45. For the same compound, the “Plant response rating, Velvetleaf” value in experiment [3] (setting [7]) was 65; in experiment [3] (setting [8]) it was 80; in experiment [3] (setting [9]), 55; in experiment [3] (setting [10]), 85. Further, the “Plant response rating, Pigweed” value in experiment [4] (setting [7]) amounted to 45; in experiment [4] (setting [8]), 70; in experiment [4] (setting [9]) it was 80; in experiment [4] (setting [10]), 90. Moreover, the “Plant response rating, Foxtail, Giant” value in experiment [5] (setting [7]) was found to be 0; in experiment [5] (setting [8]) it was 0; in experiment [5] (setting [9]), 5; in experiment [5] (setting [10]), 35. In addition, the “Plant response rating, Morningglory” value amounted to 40 in experiment [6] (setting [7]), 55 in experiment [6] (setting [8]), 0 in experiment [6] (setting [9]) and 5 in experiment [6] (setting [10]).
Turning to `Nc1nc(-c2ccc(F)cc2)nc(C(=O)O)c1Cl` [Compound 90], the “Plant response rating, Barnyardgrass” value in experiment [1] (setting [7]) is on record as 0; in experiment [1] (setting [8]), 10; in experiment [1] (setting [9]), 0; in experiment [1] (setting [10]) it was 35. Further, the “Plant response rating, Crabgrass” value in experiment [2] (setting [7]) is recorded as 0; in experiment [2] (setting [8]), 20; in experiment [2] (setting [9]), 10; in experiment [2] (setting [10]), 50. Moreover, the “Plant response rating, Velvetleaf” value in experiment [3] (setting [7]) is on record as 65; in experiment [3] (setting [8]), 85; in experiment [3] (setting [9]) it was 10; in experiment [3] (setting [10]), 45. In addition, the “Plant response rating, Pigweed” value amounted to 35 in experiment [4] (setting [7]), 90 in experiment [4] (setting [8]), 70 in experiment [4] (setting [9]) and 80 in experiment [4] (setting [10]). Also, the “Plant response rating, Foxtail, Giant” value in experiment [5] (setting [7]) worked out at 0; in experiment [5] (setting [8]) it was 30; in experiment [5] (setting [9]), 0; in experiment [5] (setting [10]), 15. The “Plant response rating, Morningglory” value in experiment [6] (setting [7]) is recorded as 20; in experiment [6] (setting [8]), 65; in experiment [6] (setting [9]), 0; in experiment [6] (setting [10]) it was 25.
Take `CCOC(=O)C(O)c1nc(C2CC2)nc(N)c1Br` (stereo not drawn) [Compound 57]: the “Plant response rating, Barnyardgrass” value in experiment [1] (setting [8]) was found to be 25; in experiment [1] (setting [11]), 75; in experiment [1] (setting [10]), 25; in experiment [1] (setting [12]), 80. Moreover, the “Plant response rating, Crabgrass” value was found to be 10 in experiment [2] (setting [8]), 30 in experiment [2] (setting [11]), 10 in experiment [2] (setting [10]) and 70 in experiment [2] (setting [12]). Besides, the “Plant response rating, Velvetleaf” value in experiment [3] (setting [8]) was 50; in experiment [3] (setting [11]), 80; in experiment [3] (setting [10]), 80; in experiment [3] (setting [12]), 95. Moreover, the “Plant response rating, Pigweed” value in experiment [4] (setting [8]) amounted to 75; in experiment [4] (setting [11]), 95; in experiment [4] (setting [10]), 90; in experiment [4] (setting [12]), 100. The “Plant response rating, Foxtail, Giant” value worked out at 60 in experiment [5] (setting [8]), 80 in experiment [5] (setting [11]), 10 in experiment [5] (setting [10]) and 70 in experiment [5] (setting [12]). The “Plant response rating, Morningglory” value in experiment [6] (setting [8]) is recorded as 70; in experiment [6] (setting [11]), 80; in experiment [6] (setting [10]), 100; in experiment [6] (setting [12]), 100.
